Laboratory results taken from ChEMBL document CHEMBL1201862, “PubChem BioAssay data set” (2004).
Calls of active or inactive are those of the source.

Columns and labels:
Format in all cases: functional
[1] = target: Ribosomal protein S6 kinase alpha-3 (Homo sapiens, UniProt P51812);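 also: measured within a kinome-wide profiling panel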
[2] = target: Receptor tyrosine-protein kinase erbB-2 (Homo sapiens, UniProt P04626); assay: Navigating the Kinome. Panel member name: ERBB2
[3] = target: Glycogen synthase kinase-3 alpha (Homo sapiens, UniProt P49840);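 also: GSK3A result taken from a broad kinome-wide kinase panel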
Chain of Glycogen synthase kinase-3 alpha (P49840 whole entry): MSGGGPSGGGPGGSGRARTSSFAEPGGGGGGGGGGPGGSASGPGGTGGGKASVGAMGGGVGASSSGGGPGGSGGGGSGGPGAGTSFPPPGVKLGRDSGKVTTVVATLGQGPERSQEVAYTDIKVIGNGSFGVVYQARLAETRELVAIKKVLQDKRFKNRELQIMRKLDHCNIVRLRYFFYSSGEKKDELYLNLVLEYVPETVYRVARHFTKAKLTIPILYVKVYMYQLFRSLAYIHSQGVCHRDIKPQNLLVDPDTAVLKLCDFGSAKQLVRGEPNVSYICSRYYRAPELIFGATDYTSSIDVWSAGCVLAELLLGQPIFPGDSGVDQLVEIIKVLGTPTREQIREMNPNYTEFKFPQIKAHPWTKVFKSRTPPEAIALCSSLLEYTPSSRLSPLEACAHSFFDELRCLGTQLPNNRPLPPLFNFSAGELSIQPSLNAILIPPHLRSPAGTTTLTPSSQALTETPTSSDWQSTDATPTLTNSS

[4] = target: STE20-like serine/threonine-protein kinase (Homo sapiens, UniProt Q9H2G2)
Chain of STE20-like serine/threonine-protein kinase (Q9H2G2 whole entry): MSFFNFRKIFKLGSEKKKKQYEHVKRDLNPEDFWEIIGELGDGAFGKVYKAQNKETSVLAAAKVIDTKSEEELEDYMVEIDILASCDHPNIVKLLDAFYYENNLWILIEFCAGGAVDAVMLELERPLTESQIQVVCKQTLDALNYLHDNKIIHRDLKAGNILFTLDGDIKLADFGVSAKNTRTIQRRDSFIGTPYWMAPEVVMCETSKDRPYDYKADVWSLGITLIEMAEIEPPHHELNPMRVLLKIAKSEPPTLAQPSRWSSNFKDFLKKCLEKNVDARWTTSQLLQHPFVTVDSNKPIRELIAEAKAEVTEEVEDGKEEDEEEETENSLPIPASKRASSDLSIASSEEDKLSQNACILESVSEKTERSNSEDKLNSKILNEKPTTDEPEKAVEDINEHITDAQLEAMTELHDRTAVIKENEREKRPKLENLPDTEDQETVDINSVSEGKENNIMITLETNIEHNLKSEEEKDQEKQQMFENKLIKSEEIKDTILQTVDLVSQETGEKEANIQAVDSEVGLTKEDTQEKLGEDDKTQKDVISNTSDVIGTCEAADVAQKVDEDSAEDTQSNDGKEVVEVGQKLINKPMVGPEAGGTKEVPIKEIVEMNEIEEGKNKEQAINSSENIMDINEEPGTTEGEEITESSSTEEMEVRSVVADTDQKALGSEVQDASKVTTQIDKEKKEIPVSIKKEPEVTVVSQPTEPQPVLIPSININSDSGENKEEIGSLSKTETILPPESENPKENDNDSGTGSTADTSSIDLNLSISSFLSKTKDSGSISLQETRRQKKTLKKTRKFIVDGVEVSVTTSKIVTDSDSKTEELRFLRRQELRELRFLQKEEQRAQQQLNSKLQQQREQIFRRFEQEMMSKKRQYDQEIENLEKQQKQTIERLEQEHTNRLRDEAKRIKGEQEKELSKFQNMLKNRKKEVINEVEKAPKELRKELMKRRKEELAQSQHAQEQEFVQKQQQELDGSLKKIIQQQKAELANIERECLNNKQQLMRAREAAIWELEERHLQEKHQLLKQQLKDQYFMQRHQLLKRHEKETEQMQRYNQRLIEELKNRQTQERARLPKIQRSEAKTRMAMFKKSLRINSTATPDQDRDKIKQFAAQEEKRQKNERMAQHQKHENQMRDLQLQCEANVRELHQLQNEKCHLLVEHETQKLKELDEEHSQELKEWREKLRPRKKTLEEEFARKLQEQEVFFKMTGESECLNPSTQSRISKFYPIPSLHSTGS

[5] = target: T1, Mitogen-activated protein kinase 12 (Homo sapiens, UniProt P53778);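 also: measured as one member of a kinome-wide kinase profiling panel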
T1 sequence (P53778 whole entry): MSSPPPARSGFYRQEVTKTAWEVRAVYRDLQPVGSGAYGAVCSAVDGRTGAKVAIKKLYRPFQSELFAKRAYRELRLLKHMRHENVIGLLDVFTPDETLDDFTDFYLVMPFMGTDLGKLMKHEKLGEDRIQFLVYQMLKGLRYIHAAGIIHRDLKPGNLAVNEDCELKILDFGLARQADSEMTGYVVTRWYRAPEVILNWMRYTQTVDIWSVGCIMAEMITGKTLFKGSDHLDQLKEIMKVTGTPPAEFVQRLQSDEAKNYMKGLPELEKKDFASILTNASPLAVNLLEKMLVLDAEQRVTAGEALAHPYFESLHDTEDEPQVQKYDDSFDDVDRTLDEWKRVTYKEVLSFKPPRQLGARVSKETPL

[6] = target: Calcium/calmodulin-dependent protein kinase type II subunit delta (Homo sapiens, UniProt Q13557)
[7] = target: Proto-oncogene tyrosine-protein kinase ROS (Homo sapiens, UniProt P08922);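 also: ROS1 tested as one member of a kinome-wide kinase panel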
[8] = target: T2, Serine/threonine-protein kinase 17A (Homo sapiens, UniProt Q9UEE5)
T2 sequence (Q9UEE5 whole entry): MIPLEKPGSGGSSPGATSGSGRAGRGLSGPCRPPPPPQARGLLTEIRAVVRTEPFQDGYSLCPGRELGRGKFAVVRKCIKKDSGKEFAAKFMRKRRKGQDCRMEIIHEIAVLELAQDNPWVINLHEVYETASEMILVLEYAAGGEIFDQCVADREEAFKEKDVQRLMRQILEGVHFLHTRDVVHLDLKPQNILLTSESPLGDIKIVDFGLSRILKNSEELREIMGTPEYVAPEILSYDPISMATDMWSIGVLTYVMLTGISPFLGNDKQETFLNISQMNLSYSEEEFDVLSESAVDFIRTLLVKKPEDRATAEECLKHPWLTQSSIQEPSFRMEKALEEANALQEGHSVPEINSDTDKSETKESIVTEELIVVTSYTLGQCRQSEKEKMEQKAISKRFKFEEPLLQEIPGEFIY

Ephrin type-A receptor 2 = Ephrin type-A receptor 2 (Homo sapiens, UniProt P29317);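 also: EPHA2 tested as one member of a kinome-wide kinase panel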
[9] = target: Proto-oncogene tyrosine-protein kinase Src (Homo sapiens, UniProt P12931);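 also: SRC entry within a kinome-wide kinase profiling panel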
[10] = target: T3, Receptor-type tyrosine-protein kinase FLT3 (Homo sapiens, UniProt P36888);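 also: FLT3 was tested as one member of a kinome-wide kinase panel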
T3 sequence (P36888 whole entry): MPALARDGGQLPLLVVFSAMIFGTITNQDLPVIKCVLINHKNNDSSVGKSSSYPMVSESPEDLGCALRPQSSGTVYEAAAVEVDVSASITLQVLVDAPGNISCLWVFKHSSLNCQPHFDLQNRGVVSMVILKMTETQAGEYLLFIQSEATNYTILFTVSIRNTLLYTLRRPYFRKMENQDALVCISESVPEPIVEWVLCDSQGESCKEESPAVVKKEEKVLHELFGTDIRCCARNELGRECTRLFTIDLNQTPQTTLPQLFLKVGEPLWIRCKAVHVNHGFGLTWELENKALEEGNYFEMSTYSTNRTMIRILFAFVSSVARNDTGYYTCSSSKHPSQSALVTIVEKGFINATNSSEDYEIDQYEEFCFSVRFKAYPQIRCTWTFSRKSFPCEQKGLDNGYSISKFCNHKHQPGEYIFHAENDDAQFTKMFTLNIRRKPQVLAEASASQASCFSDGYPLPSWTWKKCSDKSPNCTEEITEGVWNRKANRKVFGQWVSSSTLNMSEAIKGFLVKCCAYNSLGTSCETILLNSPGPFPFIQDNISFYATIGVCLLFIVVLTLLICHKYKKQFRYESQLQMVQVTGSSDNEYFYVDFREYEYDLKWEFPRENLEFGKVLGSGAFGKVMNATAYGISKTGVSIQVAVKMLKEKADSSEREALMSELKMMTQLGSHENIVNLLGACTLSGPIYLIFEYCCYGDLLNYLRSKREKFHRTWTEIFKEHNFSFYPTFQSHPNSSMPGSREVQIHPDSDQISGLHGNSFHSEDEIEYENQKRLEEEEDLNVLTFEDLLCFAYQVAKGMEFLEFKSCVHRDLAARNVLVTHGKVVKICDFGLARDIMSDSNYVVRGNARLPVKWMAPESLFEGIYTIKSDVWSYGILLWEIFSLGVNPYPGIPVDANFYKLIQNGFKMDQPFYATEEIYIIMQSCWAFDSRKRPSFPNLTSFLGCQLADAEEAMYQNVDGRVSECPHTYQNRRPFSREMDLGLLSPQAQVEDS

[11] = target: Homeodomain-interacting protein kinase 2 (Homo sapiens, UniProt Q9H2X6);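 also: measured within a kinome-wide kinase profiling panel, HIPK2 being one panel member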
Chain of Homeodomain-interacting protein kinase 2 (Q9H2X6 whole entry): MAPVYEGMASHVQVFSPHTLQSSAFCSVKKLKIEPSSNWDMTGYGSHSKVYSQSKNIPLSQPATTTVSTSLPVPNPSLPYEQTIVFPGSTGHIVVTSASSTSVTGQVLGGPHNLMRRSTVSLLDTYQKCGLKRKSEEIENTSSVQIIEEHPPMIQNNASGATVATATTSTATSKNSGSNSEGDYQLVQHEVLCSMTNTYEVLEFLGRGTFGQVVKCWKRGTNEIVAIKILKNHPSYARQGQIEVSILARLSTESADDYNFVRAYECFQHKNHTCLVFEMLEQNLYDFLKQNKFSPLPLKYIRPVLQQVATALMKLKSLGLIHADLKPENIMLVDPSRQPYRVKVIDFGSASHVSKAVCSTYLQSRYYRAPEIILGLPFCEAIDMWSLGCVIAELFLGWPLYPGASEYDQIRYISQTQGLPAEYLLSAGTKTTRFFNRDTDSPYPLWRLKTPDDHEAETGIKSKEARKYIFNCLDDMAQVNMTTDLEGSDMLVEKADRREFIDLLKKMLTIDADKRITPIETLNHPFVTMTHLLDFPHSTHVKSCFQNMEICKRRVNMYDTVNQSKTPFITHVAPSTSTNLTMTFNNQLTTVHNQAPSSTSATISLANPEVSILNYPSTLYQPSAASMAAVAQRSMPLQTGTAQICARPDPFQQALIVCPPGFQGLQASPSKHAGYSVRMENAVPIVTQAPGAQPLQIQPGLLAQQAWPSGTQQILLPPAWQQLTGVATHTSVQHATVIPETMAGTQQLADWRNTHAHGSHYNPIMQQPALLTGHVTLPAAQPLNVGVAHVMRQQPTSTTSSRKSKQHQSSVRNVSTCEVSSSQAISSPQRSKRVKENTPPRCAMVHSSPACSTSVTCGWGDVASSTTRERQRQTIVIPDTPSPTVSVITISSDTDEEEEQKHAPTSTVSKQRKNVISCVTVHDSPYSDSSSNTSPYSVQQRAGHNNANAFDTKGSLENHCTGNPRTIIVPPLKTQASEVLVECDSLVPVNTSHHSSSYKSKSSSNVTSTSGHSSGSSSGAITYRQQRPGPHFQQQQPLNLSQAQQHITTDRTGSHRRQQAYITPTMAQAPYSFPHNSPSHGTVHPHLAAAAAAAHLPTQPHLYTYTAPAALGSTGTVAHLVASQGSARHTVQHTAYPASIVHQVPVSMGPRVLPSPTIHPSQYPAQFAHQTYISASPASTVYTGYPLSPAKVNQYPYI

[12] = target: Serine/threonine-protein kinase N2 (Homo sapiens, UniProt Q16513)
Chain of Serine/threonine-protein kinase N2 (Q16513 whole entry): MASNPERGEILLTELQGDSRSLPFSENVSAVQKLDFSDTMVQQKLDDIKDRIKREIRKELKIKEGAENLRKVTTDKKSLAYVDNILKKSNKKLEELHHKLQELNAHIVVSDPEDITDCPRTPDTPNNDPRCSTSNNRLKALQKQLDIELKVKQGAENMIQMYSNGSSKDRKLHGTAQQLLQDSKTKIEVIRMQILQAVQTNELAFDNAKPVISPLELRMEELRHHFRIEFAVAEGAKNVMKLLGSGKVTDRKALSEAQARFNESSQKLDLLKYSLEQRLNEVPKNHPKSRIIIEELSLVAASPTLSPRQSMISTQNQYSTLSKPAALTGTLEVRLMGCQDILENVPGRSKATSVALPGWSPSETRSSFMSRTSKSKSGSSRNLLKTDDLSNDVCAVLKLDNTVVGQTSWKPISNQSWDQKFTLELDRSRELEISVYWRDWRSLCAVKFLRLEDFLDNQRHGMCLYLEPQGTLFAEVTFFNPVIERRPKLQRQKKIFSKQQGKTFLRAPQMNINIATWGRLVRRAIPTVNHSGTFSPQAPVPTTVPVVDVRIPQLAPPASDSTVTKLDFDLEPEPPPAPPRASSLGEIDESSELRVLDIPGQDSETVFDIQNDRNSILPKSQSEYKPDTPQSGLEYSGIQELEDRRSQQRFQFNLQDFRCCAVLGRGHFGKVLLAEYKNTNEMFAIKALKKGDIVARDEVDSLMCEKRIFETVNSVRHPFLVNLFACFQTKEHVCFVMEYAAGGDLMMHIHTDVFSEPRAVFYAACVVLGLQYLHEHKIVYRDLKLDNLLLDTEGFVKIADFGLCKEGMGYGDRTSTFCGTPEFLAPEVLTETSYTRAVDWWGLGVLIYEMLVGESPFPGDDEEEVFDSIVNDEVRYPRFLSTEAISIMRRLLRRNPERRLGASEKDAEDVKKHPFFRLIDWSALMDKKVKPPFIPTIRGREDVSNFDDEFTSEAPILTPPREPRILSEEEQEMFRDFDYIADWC

[13] = target: T4, cAMP-dependent protein kinase catalytic subunit PRKX (Homo sapiens, UniProt P51817)
T4 sequence (P51817 whole entry): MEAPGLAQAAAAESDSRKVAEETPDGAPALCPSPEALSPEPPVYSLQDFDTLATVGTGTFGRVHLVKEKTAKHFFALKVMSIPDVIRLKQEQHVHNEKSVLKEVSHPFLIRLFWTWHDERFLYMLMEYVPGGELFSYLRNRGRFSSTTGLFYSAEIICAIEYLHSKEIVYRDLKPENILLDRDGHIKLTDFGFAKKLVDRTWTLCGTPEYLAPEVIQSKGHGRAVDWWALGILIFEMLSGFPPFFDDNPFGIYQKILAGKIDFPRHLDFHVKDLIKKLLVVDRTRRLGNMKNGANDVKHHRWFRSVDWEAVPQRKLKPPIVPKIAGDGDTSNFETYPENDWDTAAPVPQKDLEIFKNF

[14] = target: Tyrosine-protein kinase JAK2 (Homo sapiens, UniProt O60674);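 also: JAK2 tested as one member of a kinase panel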
[15] = target: Serine/threonine-protein kinase D3 (Homo sapiens, UniProt O94806);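 also: determined within a kinase panel screen, with PRKCN as the panel member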

Chain of Ribosomal protein S6 kinase alpha-3 (P51812 whole entry): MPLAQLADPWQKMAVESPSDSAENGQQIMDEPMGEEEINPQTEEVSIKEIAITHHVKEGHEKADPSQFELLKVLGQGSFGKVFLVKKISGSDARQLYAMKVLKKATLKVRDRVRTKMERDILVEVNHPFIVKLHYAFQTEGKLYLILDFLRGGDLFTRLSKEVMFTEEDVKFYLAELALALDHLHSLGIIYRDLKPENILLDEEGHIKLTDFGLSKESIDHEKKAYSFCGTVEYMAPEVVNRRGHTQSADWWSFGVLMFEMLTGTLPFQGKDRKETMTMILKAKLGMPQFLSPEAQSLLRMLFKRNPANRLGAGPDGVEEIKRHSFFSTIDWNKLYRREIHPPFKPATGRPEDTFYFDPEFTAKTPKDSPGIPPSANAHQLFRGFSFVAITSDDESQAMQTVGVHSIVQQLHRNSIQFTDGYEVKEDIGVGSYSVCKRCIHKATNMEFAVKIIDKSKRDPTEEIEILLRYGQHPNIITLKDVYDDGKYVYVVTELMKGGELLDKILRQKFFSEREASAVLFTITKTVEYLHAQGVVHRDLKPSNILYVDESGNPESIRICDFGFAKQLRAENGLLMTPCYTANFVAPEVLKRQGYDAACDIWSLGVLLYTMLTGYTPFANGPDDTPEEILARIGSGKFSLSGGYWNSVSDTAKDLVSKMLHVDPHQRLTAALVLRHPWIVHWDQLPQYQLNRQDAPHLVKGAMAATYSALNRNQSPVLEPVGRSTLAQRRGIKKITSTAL

SMILES	Ki [1]	Ki [2]	Ki [3]	Ki [4]	Ki [5]	Ki [6]	Ki [7]	Ki [8]	Ki (Ephrin type-A receptor 2)	Ki [9]	Ki [10]	Ki [11]	Ki [12]	Ki [13]	Ki [14]	Ki [15]	also measured
NC(=O)c1cc(-c2ccnc(N)n2)[nH]c1-c1ccc(Cl)cc1Cl	50.1 nM (active)	> 1580 nM (inactive)	6.31 nM (active)	10000 nM (active)	79.4 nM (active)	> 3160 nM (inactive)	> 2000 nM (inactive)	25.1 nM (active)	> 3160 nM (inactive)	> 2000 nM (inactive)	> 1260 nM (inactive)	25.1 nM (active)	20 nM (active)	1000 nM (active)	20 nM (active)	–	pKi [1]: 7.3; pKi [3]: 8.2; pKi [4]: 5; pKi [5]: 7.1; pKi [8]: 7.6; pKi [11]: 7.6; pKi [12]: 7.7; pKi [13]: 6; pKi [14]: 7.7
Cc1ccc(-n2nc(C(C)(C)C)cc2NC(=O)Nc2ccc(OCCN3CCOCC3)c3ccccc23)cc1 [DORAMAPIMOD]	> 3980 nM (inactive)	–	–	–	–	–	–	–	–	–	–	–	–	–	–	> 3980 nM (inactive)	–
NC(COc1cncc(-c2ccc3c(c2)C(=Cc2ccco2)C(=O)N3)c1)Cc1c[nH]c2ccccc12 (stereo unspecified)	–	1000 nM (active)	398 nM (active)	158 nM (active)	2510 nM (active)	15.8 nM (active)	1000 nM (active)	15.8 nM (active)	> 3160 nM (inactive)	398 nM (active)	31.6 nM (active)	39.8 nM (active)	5.01 nM (active)	7.94 nM (active)	316 nM (active)	6.31 nM (active)	–
